This note sets out measurements from patent publication US8906852B2 (MethylGene Inc., priority 2010, dated 2014).

For this assay, the target named is T1, VEGFR/KDR (Homo sapiens, UniProt P35968).
T1 construct: made in house; host or cells: Sf9 cells (Spodoptera frugiperda), baculovirus
T1 sequence (P35968 806-1356): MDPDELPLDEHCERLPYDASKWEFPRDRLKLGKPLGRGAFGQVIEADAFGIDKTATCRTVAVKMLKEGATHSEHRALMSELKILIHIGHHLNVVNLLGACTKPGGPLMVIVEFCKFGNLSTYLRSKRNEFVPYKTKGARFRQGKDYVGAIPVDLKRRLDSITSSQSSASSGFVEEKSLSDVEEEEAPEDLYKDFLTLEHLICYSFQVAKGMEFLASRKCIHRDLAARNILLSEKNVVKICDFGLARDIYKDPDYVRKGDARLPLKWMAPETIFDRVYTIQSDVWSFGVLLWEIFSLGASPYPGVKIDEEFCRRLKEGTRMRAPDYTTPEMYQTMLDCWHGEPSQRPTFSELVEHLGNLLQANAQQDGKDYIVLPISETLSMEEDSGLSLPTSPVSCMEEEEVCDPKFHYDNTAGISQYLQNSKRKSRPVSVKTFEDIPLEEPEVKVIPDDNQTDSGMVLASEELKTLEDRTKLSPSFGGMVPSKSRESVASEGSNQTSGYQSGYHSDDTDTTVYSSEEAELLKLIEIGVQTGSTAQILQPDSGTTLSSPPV
The assay can be described thus: VEGFR/KDR kinase inhibition, DELFIA assay. In kind it is biochemical. As to conditions: ATP 0.6 uM (2x Km), enzyme 5 nM. Put shortly: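 Enzyme (5 nM) pre-incubated 4 min on ice with inhibitor and Mg-ATP (0.6 uM, 2× Km), then reacted 10-30 min at 30° C on immobilized poly(Glu4,Tyr). EDTA-quenched phosphotyrosine detected with Europium-labeled antibody by time-resolved fluorescence; IC50 from concentration series.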
In the case of `COCCN(Cc1cnc(-c2cc3nccc(Oc4ccc(NC(=O)NC5CC5)cc4F)c3s2)n1C)C(=O)NC1CC1` [Compound 161, 1-((2-(7-(2-fluoro-4-cyclopropylaminocarbonylaminophenoxy)thieno[3,2-b]pyridin-2-yl)-1-methyl-1H-imidazol-5-yl)methyl)-3-cyclopropyl-1-(2-methoxyethyl)urea], the IC50 – broadly, the concentration that inhibits the measured activity by half – is less than 50 nM.

`COCCN(CCn1cnc(-c2cc3nccc(Oc4ccc(NC(=O)NC5CC5)cc4F)c3s2)c1)C(=O)CO` [Compound 258, N-(2-(4-(7-(4-(3-cyclopropylureido)-2-fluorophenoxy)thieno[3,2-b]-pyridin-2-yl)-1H-imidazol-1-yl)ethyl)-2-hydroxy-N-(2-methoxyethyl)acetamide]: the IC50 was less than 50 nM.

For `CC(CC(=O)O)N1CCN(Cc2ccc(-c3cc4nccc(Oc5ccc(NC(=O)NC6CC6)cc5F)c4s3)nc2)CC1` (stereo not shown) [Compound 516], the IC50 is less than 50 nM.

The compound `C[C@H]1CN(Cc2ccc(-c3cc4nccc(Oc5ccc(NC(=O)NC6CC6)cc5F)c4s3)nc2)CCN1CCO` [Compound 582, (S)-1-cyclopropyl-3-(3-fluoro-4-(2-(5-((4-(2-hydroxyethyl)-3-methylpiperazin-1-yl)methyl)pyridin-2-yl)thieno[3,2-b]pyridin-7-yloxy)phenyl)urea] returned an IC50 of less than 50 nM.

As to `O=C(O)CCNC(=O)N1CCN(Cc2ccc(-c3cc4nccc(Oc5ccc(NC(=O)NC6CC6)cc5F)c4s3)nc2)CC1` [Compound 559], the IC50 is less than 50 nM.

In turn, `CN1CCN(C(=O)C2CCN(C(=O)c3cc4nccc(Oc5ccc(NC(=O)NC6CC6)cc5F)c4s3)CC2)CC1` [Compound 472, 1-cyclopropyl-3-(3-fluoro-4-(2-(4-(4-methylpiperazine-l-carbonyl)piperidine-1-carbonyl)thieno[3,2-b]pyridin-7-yloxy)phenyl)urea] showed an IC50 of 50 to 100 nM.

`CC(C)(O)CN1CCN(Cc2ccc(-c3cc4nccc(Oc5ccc(NC(=O)NC6CC6)cc5F)c4s3)nc2)CC1` [Compound 570] gave an IC50 of less than 50 nM.

`CC(C)N1CCN(Cc2ccc(-c3cc4nccc(Oc5ccc(NC(=O)NC6CC6)cc5F)c4s3)nc2)CC1` [Compound 54-E, 1-cyclopropyl-3-(3-fluoro-4-(2-(5-((4-isopropylpiperazin-1-yl)methyl)pyridin-2-yl)thieno[3,2-b]pyridin-7-yloxy)phenyl)urea] came in with an IC50 of less than 50 nM.

Regarding `COCCNCCc1ccc(-c2cc3nccc(Oc4ccc(NC(=O)Nc5cc(C)on5)cc4F)c3s2)nc1` [Compound 183, 1-(3-fluoro-4-(2-(5-(2-(2-methoxyethylamino)ethyl)pyridin-2-yl)thieno[3,2-b]pyridin-7-yloxy)phenyl)-3-(5-methylisoxazol-3-yl)urea], the IC50 is less than 50 nM.

`CC(C)NC(=O)Nc1ccc(Oc2ccnc3cc(-c4ncc(C(=O)N5CCCC5)n4C)sc23)c(F)c1` [Compound 223, 1-(3-fluoro-4-(2-(1-methyl-5-(pyrrolidine-1-carbonyl)-1H-imidazol-2-yl)thieno[3,2-b]pyridin-7-yloxy)phenyl)-3-isopropylurea]: the IC50 lay in the range of 100 to 250 nM.

`COCCN(Cc1ccc(-c2cc3nccc(Oc4ccc(NC(=O)NC5CC5)nc4)c3s2)nc1)C(=O)CO` [Compound 31, N-((6-(7-(6-(3-cyclopropylureido)pyridin-3-yloxy)thieno[3,2-b]pyridin-2-yl)pyridin-3-yl)methyl)-2-hydroxy-N-(2-methoxyethyl)acetamide]: the IC50 was in the range of 100 to 250 nM.

As for `CCNC(=O)NC1CCN(Cc2ccc(-c3cc4nccc(Oc5ccc(NC(=O)NC6CC6)cc5F)c4s3)nc2)CC1` [Compound 353], the half-inhibitory concentration (IC50) is less than 50 nM.

In the case of `CCNC(=O)N(CCOC)Cc1ccc(-c2cc3nccc(Oc4ccc(NC(=O)NC5CC5)c(F)c4F)c3s2)nc1` [Compound 35, N-[3-((6-(7-(4-(3-cyclopropylureido)-2,3-difluorophenoxy)thieno[3,2-b]pyridin-2-yl)pyridin-3-yl)methyl)]-N-(1-ethyl)-N-(2-methoxyethyl)urea], the IC50 is less than 50 nM.

In turn, `CC(=O)NC1CCN(Cc2ccc(-c3cc4nccc(Oc5ccc(NC(=O)NC6CC6)cc5F)c4s3)nc2)CC1` [Compound 344] had an IC50 of less than 50 nM.

`CC(C)(C)OC(=O)N[C@@H]1CCN(Cc2ccc(-c3cc4nccc(Oc5ccc(NC(=O)NC6CC6)cc5F)c4s3)nc2)C1` [Compound 481, (R)-tert-butyl 1-((6-(7-(4-(3-cyclopropylureido)-2-fluorophenoxy)thieno[3,2-b]pyridin-2-yl)pyridin-3-yl)methyl)pyrrolidin-3-ylcarbamate] had an IC50 of less than 50 nM.

In turn, `O=C(Nc1ccc(Oc2ccnc3cc(-c4cn(CCC(=O)N5CCCCC5)nn4)sc23)c(F)c1)NC1CC1` [Compound 379] displayed an IC50 of less than 50 nM.

`CN(C(=O)OC(C)(C)C)C1CCN(Cc2ccc(-c3cc4nccc(Oc5ccc(NC(=O)NC6CC6)cc5F)c4s3)nc2)CC1` [342-A] had an IC50 of less than 50 nM.

Take `NC1CCN(C(=O)c2ccc(-c3cc4nccc(Oc5ccc(NC(=O)NC6CC6)cc5F)c4s3)nc2)CC1` [Compound 400]: the IC50 was less than 50 nM.

Compound `O=C(Nc1ccc(Oc2ccnc3cc(C(=O)N4CCC[C@@H](O)C4)sc23)c(F)c1)NC1CC1` [Compound 463, (R)-1-cyclopropyl-3-(3-fluoro-4-(2-(3-hydroxypiperidine-1-carbonyl)thieno-[3,2-b]pyridine-7-yloxy)phenyl)urea] displayed an IC50 of 100 to 250 nM.

`CCNC(=O)N1CC(N(CC(=O)O)Cc2ccc(-c3cc4nccc(Oc5ccc(NC(=O)NC6CC6)cc5F)c4s3)nc2)C1` [Compound 434, 2-(((6-(7-(4-(3-Cyclopropylureido)-2-fluorophenoxy)thieno[3,2-b]pyridin-2-yl)pyridin-3-yl)methyl)(1-(ethylcarbamoyl)azetidin-3-yl)-amino)acetic acid] showed an IC50 of less than 50 nM.

As for `CN(CCO)C1CCN(Cc2ccc(-c3cc4nccc(Oc5ccc(NC(=O)NC6CC6)cc5F)c4s3)nc2)CC1` [Compound 417], the IC50 is less than 50 nM.

The compound `CN1CCN(C(=O)C2CN(Cc3ccc(-c4cc5nccc(Oc6ccc(NC(=O)NC7CC7)cc6F)c5s4)nc3)C2)CC1` [Compound 489, 1-cyclopropyl-3-(3-fluoro-4-(2-(5-((3-(4-methylpiperazine-1-carbonyl)azetidin-1-yl)methyl)pyridin-2-yl)thieno[3,2-b]pyridin-7-yloxy)phenyl)urea] gave an IC50 of less than 50 nM.

Take `COC(=O)CC(C)N1CCN(Cc2ccc(-c3cc4nccc(Oc5ccc(NC(=O)NC6CC6)cc5F)c4s3)nc2)CC1` (stereo not shown) [Compound 508, methyl 3-(4-((6-(7-(4-(3-cyclopropylureido)-2-fluorophenoxy)thieno[3,2-b]pyridin-2-yl)pyridin-3-yl)methyl)piperazin-1-yl)butanoate]: the IC50 was less than 50 nM.

Take `O=C(Nc1ccc(Oc2ccnc3cc(-c4cn(CC(=O)N5CCCCC5)nn4)sc23)c(F)c1)NC1CC1` [Compound 372, 1-cyclopropyl-3-(3-fluoro-4-(2-(1-(2-oxo-2-(piperidin-1-yl)ethyl)-1H-1,2,3-triazol-4-yl)thieno[3,2-b]pyridin-7-yloxy)phenyl)urea]: the IC50 was less than 50 nM.

In the case of `O=C(Nc1ccc(Oc2ccnc3cc(-c4cn(CC(=O)N5CCOCC5)nn4)sc23)c(F)c1)NC1CC1` [Compound 368], the half-inhibitory concentration (IC50) is less than 50 nM.
